Test results published in ChEMBL document CHEMBL4507278 (2021).

Key:
[1] = tested on: Tyrosine-protein kinase ABL1 (Homo sapiens), P00519 [Y253F]; conditions: Compound concentration 1000.0 nM
[2] = target: 5'-AMP-activated protein kinase catalytic subunit alpha-2 (Homo sapiens) (UniProt P54646); conditions: Compound concentration 1000.0 nM
[3] = target: NUAK family SNF1-like kinase 1 (Homo sapiens) (UniProt O60285); conditions: Compound concentration 1000.0 nM
[4] = target: Cytoplasmic tyrosine-protein kinase BMX (Homo sapiens) (UniProt P51813); conditions: Compound concentration 1000.0 nM
[5] = target: Macrophage colony-stimulating factor 1 receptor (Homo sapiens) (UniProt P07333); conditions: Compound concentration 1000.0 nM
[6] = target: Serine/threonine-protein kinase DCLK2 (Homo sapiens) (UniProt Q8N568); conditions: Compound concentration 1000.0 nM
[7] = target: Serine/threonine-protein kinase DCLK3 (Homo sapiens) (UniProt Q9C098); conditions: Compound concentration 1000.0 nM
[8] = target: Discoidin domain-containing receptor 2 (Homo sapiens) (UniProt Q16832); conditions: Compound concentration 1000.0 nM
[9] = target: Serine/threonine-protein kinase 17A (Homo sapiens) (UniProt Q9UEE5); conditions: Compound concentration 1000.0 nM
Chain of Serine/threonine-protein kinase 17A (Homo sapiens) (Q9UEE5 whole entry): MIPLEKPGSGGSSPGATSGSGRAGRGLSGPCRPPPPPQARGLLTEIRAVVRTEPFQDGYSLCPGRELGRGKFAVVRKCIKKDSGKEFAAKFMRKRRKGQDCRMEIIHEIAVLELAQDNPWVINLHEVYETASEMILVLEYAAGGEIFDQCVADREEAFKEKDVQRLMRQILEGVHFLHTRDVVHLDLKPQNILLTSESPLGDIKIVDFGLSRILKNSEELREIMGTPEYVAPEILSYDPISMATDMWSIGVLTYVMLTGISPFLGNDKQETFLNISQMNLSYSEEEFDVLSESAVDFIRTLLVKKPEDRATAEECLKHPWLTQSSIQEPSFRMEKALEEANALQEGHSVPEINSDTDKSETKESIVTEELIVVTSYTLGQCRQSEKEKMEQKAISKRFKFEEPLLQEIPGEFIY

[10] = target: Eukaryotic translation initiation factor 2-alpha kinase 1 (Homo sapiens) (UniProt Q9BQI3); conditions: Compound concentration 1000.0 nM
[11] = tested on: Receptor-type tyrosine-protein kinase FLT3 (Homo sapiens), P36888 [D835V]; conditions: Compound concentration 1000.0 nM
[12] = tested on: Receptor-type tyrosine-protein kinase FLT3 (Homo sapiens), P36888 [K663Q]; conditions: Compound concentration 1000.0 nM
[13] = tested on: Mast/stem cell growth factor receptor Kit (Homo sapiens), P10721 [D816V]; conditions: Compound concentration 1000.0 nM
[14] = target: Mitogen-activated protein kinase kinase kinase 9 (Homo sapiens) (UniProt P80192); conditions: Compound concentration 1000.0 nM
[15] = target: Mitogen-activated protein kinase kinase kinase 10 (Homo sapiens) (UniProt Q02779); conditions: Compound concentration 1000.0 nM
[16] = target: Myosin-IIIa (Homo sapiens) (UniProt Q8NEV4); conditions: Compound concentration 1000.0 nM
[17] = target: Mitogen-activated protein kinase 13 (Homo sapiens) (UniProt O15264); conditions: Compound concentration 1000.0 nM
[18] = target: Serine/threonine-protein kinase PAK 3 (Homo sapiens) (UniProt O75914); conditions: Compound concentration 1000.0 nM
[19] = target: Cyclin-dependent kinase 18 (Homo sapiens) (UniProt Q07002); conditions: Compound concentration 1000.0 nM
Chain of Cyclin-dependent kinase 18 (Homo sapiens) (Q07002 whole entry): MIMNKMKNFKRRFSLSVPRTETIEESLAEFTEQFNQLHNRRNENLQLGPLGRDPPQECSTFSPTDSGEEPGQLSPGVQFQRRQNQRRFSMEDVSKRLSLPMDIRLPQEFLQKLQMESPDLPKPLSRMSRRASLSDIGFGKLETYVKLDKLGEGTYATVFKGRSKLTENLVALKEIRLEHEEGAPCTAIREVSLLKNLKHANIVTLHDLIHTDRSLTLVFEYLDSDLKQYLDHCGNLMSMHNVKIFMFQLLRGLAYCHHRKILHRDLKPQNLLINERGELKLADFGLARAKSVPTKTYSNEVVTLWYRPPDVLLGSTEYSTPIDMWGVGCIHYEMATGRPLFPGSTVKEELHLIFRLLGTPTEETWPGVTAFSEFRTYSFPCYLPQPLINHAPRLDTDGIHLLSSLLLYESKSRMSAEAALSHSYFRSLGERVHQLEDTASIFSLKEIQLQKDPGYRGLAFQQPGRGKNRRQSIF

[20] = target: Cyclin-dependent kinase 2 homolog (Plasmodium falciparum (isolate 3D7)) (UniProt P61075); conditions: Compound concentration 1000.0 nM
Chain of Cyclin-dependent kinase 2 homolog (Plasmodium falciparum (isolate 3D7)) (P61075 whole entry, canonical isoform): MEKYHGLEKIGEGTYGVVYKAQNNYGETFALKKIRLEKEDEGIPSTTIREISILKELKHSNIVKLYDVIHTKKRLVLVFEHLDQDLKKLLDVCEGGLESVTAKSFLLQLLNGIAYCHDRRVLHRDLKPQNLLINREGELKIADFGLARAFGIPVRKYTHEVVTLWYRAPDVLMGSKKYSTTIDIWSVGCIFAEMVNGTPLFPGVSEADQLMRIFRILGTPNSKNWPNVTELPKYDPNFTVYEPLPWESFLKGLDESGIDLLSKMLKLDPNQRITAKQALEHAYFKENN

[21] = target: Phosphorylase b kinase regulatory subunit alpha, liver isoform (Homo sapiens) (UniProt P46019); conditions: Compound concentration 1000.0 nM
Chain of Phosphorylase b kinase regulatory subunit alpha, liver isoform (Homo sapiens) (P46019 whole entry, canonical isoform): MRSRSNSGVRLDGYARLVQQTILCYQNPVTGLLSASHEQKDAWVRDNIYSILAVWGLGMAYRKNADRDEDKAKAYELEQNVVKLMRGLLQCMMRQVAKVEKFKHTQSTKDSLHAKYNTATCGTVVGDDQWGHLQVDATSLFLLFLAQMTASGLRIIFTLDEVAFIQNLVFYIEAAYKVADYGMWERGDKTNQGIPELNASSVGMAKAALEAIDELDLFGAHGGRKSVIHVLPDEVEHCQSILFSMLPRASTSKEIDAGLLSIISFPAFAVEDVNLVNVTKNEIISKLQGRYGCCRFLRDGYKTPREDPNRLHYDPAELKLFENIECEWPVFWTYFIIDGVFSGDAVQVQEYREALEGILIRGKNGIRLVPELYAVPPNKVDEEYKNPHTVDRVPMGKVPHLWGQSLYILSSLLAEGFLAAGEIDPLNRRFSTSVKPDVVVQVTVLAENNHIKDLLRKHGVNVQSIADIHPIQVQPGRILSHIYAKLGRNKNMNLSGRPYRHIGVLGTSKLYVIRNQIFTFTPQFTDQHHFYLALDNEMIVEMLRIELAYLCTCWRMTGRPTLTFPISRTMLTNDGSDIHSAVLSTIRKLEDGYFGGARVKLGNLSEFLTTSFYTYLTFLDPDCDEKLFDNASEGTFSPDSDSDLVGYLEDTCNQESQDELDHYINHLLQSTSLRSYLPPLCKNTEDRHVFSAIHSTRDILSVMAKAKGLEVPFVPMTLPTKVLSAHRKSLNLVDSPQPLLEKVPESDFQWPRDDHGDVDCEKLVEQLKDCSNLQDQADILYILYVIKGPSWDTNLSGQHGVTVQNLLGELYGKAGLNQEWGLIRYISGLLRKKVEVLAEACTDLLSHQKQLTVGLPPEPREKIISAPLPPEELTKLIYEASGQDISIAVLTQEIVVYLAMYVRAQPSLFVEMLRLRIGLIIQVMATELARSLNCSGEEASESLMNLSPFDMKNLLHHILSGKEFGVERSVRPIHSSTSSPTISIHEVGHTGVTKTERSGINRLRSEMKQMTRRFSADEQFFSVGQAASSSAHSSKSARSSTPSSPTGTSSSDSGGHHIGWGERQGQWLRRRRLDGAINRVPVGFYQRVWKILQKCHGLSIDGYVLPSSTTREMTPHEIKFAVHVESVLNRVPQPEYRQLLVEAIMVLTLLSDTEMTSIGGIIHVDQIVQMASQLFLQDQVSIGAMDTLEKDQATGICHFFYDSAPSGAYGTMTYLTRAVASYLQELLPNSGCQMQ

[22] = tested on: Phosphatidylinositol 4,5-bisphosphate 3-kinase catalytic subunit alpha isoform (Homo sapiens), P42336 [E545A]; conditions: Compound concentration 1000.0 nM
Chain of Phosphatidylinositol 4,5-bisphosphate 3-kinase catalytic subunit alpha isoform (Homo sapiens), P42336 [E545A] (P42336 whole entry E545A, canonical isoform): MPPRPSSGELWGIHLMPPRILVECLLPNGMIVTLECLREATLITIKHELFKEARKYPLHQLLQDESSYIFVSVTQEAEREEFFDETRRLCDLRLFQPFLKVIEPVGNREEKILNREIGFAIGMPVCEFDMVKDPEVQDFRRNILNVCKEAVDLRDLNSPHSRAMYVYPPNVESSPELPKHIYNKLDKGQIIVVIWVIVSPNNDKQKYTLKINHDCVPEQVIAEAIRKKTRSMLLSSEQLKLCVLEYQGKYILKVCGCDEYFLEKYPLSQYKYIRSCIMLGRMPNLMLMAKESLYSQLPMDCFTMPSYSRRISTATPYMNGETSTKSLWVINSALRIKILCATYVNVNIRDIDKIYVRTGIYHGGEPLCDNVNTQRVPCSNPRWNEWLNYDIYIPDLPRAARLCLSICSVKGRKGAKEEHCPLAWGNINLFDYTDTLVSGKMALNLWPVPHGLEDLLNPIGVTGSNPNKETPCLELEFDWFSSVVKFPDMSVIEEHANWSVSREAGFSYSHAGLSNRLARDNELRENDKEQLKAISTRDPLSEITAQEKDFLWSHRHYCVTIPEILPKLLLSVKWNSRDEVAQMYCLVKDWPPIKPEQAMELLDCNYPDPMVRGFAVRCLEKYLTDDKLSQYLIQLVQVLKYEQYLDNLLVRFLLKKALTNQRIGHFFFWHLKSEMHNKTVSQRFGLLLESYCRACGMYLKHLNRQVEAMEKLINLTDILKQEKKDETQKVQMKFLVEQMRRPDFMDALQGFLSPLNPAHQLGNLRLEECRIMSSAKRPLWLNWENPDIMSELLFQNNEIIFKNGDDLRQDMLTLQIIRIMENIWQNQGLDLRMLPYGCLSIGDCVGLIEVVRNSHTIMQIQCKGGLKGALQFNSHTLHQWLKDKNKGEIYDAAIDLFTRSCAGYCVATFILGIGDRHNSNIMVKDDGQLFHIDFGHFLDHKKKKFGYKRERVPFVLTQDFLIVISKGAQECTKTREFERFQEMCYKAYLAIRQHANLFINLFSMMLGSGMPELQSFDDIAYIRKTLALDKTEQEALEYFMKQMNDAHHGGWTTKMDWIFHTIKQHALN

[23] = tested on: Phosphatidylinositol 4,5-bisphosphate 3-kinase catalytic subunit alpha isoform (Homo sapiens), P42336 [E545K]; conditions: Compound concentration 1000.0 nM
[24] = tested on: Phosphatidylinositol 4,5-bisphosphate 3-kinase catalytic subunit alpha isoform (Homo sapiens), P42336 [H1047L]; conditions: Compound concentration 1000.0 nM
[25] = target: Serine/threonine-protein kinase pim-2 (Homo sapiens) (UniProt Q9P1W9); conditions: Compound concentration 1000.0 nM
[26] = target: Serine/threonine-protein kinase N2 (Homo sapiens) (UniProt Q16513); conditions: Compound concentration 1000.0 nM
[27] = target: Serine/threonine-protein kinase PLK1 (Homo sapiens) (UniProt P53350); conditions: Compound concentration 1000.0 nM
[28] = target: Serine/threonine-protein kinase PLK3 (Homo sapiens) (UniProt Q9H4B4); conditions: Compound concentration 1000.0 nM
[29] = target: Serine/threonine-protein kinase PLK4 (Homo sapiens) (UniProt O00444); conditions: Compound concentration 1000.0 nM
[30] = target: Interferon-induced, double-stranded RNA-activated protein kinase (Homo sapiens) (UniProt P19525); conditions: Compound concentration 1000.0 nM
[31] = tested on: Proto-oncogene tyrosine-protein kinase receptor Ret (Homo sapiens), P07949 [V804L]; conditions: Compound concentration 1000.0 nM
[32] = target: Ribosomal protein S6 kinase alpha-2 (Homo sapiens) (UniProt Q15349); conditions: Compound concentration 1000.0 nM
[33] = target: Tyrosine-protein kinase Srms (Homo sapiens) (UniProt Q9H3Y6); conditions: Compound concentration 1000.0 nM
[34] = target: TGF-beta receptor type-1 (Homo sapiens) (UniProt P36897); conditions: Compound concentration 1000.0 nM
Chain of TGF-beta receptor type-1 (Homo sapiens) (P36897 whole entry): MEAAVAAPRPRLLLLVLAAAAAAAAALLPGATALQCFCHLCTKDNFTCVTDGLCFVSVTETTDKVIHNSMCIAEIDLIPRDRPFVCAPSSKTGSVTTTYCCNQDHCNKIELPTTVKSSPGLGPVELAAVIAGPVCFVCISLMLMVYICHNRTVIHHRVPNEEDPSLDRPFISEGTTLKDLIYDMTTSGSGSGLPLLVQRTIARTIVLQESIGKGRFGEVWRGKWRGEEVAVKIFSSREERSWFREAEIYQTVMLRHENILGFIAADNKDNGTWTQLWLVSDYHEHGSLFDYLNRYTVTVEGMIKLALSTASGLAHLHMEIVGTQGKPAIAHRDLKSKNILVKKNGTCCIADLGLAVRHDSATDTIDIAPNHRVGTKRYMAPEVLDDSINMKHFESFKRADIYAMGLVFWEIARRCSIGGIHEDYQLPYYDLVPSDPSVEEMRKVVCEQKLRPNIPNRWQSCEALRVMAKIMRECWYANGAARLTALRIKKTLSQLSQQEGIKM

[35] = target: Serine/threonine-protein kinase 32C (Homo sapiens) (UniProt Q86UX6); conditions: Compound concentration 1000.0 nM
[36] = target: T1, 5-hydroxytryptamine receptor 1A (Homo sapiens) (UniProt P08908); conditions: Compound concentration 10.0 uM
T1 sequence (whole entry): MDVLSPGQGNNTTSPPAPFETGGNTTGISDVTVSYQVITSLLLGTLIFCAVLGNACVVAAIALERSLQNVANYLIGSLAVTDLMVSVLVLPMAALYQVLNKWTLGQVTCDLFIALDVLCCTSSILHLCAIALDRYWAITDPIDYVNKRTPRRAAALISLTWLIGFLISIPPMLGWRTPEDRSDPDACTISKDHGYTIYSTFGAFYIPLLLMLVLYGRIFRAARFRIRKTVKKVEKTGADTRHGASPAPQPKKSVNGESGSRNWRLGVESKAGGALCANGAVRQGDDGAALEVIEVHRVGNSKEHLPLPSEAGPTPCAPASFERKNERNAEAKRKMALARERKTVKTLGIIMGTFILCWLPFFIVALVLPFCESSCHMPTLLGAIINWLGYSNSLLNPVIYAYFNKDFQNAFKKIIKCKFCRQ

[37] = target: Delta-type opioid receptor (Homo sapiens) (UniProt P41143); conditions: Compound concentration 10.0 uM
Chain of Delta-type opioid receptor (Homo sapiens) (P41143 whole entry): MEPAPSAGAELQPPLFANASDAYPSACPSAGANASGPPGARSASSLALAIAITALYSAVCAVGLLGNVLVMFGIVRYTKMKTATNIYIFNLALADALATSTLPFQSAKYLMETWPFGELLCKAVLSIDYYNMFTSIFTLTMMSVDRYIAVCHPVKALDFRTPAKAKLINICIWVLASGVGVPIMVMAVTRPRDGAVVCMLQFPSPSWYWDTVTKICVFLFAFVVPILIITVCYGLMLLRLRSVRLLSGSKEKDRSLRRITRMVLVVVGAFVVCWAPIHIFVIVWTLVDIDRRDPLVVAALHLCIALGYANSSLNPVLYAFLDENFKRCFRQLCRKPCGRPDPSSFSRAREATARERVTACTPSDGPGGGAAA

[38] = target: Kappa-type opioid receptor (Homo sapiens) (UniProt P41145); conditions: Compound concentration 10.0 uM
[39] = target: Histamine H4 receptor (Homo sapiens) (UniProt Q9H3N8); conditions: Compound concentration 10.0 uM

Chain of NUAK family SNF1-like kinase 1 (Homo sapiens) (O60285 whole entry): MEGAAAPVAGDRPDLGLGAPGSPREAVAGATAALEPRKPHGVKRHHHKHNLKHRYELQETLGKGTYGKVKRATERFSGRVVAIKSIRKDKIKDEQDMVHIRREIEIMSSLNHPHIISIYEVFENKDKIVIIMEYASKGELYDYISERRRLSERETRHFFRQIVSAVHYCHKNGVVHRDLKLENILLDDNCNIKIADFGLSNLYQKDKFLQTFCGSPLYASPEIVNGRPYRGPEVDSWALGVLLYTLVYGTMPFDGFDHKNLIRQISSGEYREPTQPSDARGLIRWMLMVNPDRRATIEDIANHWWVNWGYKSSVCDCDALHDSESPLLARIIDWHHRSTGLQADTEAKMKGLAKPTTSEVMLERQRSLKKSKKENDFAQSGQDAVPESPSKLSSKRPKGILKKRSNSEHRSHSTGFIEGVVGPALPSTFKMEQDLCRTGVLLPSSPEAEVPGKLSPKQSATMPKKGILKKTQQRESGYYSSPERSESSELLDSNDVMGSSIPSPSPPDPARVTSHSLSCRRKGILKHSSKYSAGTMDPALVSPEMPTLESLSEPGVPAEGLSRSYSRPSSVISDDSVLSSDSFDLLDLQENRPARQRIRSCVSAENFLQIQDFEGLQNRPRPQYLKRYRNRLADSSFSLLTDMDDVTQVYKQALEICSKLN

CS(=O)(=O)NCC[C@H](NC(=O)c1cncc2c1cnn2-c1ccc(F)cc1)c1ccnc(S(C)(=O)=O)c1 [BI 9307]
inactive: residual activity [1] 95% | residual activity [2] 97% | residual activity [3] 85% | residual activity [4] 100% | residual activity [5] 100% | residual activity [6] 100% | residual activity [7] 93% | residual activity [8] 100% | residual activity [9] 100% | residual activity [10] 100% | residual activity [11] 100% | residual activity [12] 100% | residual activity [13] 94% | residual activity [14] 97% | residual activity [15] 75% | residual activity [16] 93% | residual activity [17] 100% | residual activity [18] 100% | residual activity [19] 100% | residual activity [20] 100% | residual activity [21] 100% | residual activity [22] 100% | residual activity [23] 78% | residual activity [24] 77% | residual activity [25] 86% | residual activity [26] 100% | residual activity [27] 100% | residual activity [28] 100% | residual activity [29] 89% | residual activity [30] 53% | residual activity [31] 100% | residual activity [32] 100% | residual activity [33] 83% | residual activity [34] 100% | residual activity [35] 100% | inhibition [36] 13.3% | inhibition [37] -2.19% | inhibition [38] 0.74% | inhibition [39] -0.39%

CS(=O)(=O)c1cc(C2(NC(=O)c3cncc4c3cnn4-c3ccc(F)cc3)CC2)ccn1 [BI 639667]
inactive: residual activity [1] 91% | residual activity [2] 100% | residual activity [3] 91% | residual activity [4] 100% | residual activity [5] 100% | residual activity [6] 100% | residual activity [7] 100% | residual activity [8] 100% | residual activity [9] 84% | residual activity [10] 73% | residual activity [11] 100% | residual activity [12] 100% | residual activity [13] 100% | residual activity [14] 100% | residual activity [15] 99% | residual activity [16] 85% | residual activity [17] 93% | residual activity [18] 100% | residual activity [19] 100% | residual activity [20] 100% | residual activity [21] 100% | residual activity [22] 100% | residual activity [23] 74% | residual activity [24] 100% | residual activity [25] 100% | residual activity [26] 100% | residual activity [27] 90% | residual activity [28] 68% | residual activity [29] 85% | residual activity [30] 60% | residual activity [31] 100% | residual activity [32] 88% | residual activity [33] 86% | residual activity [34] 100% | residual activity [35] 81% | inhibition [36] -9.71% | inhibition [37] -5.92% | inhibition [38] 1.68% | inhibition [39] 1.36%
